Measurements taken from patent US11970498B2, “CDK2 inhibitors” (BLUEPRINT MEDICINES CORPORATION, priority 2021, dated 2024).

Legend:
[1] = target: T1, CDK1/Cyclin B1, GST-tag (Homo sapiens, UniProt P06493); test: CDK1/Cyclin B1 biochemical phosphorylation assay (Caliper mobility shift); conditions: apparent IC50; 1.0 mM ATP or ATP Km; 1.5 nM enzyme; 25° C.
T1 construct: GST
Summary of the method: (§1)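 Caliper electrophoretic separation of substrate and phosphopeptide gave apparent IC50s. Enzymes: CDK1/Cyclin B1 GST-tag 1.5 nM, CDK2/Cyclin E 1.25 nM; ATP 1.0 mM or at Km; 7.5 µM FL-peptide; pH 7.5 HEPES buffer, 1% DMSO; room temperature until 10–20% phosphorylated, then EDTA quench.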

[2] = target: CDK2/Cyclin E (Homo sapiens, UniProt P24941); test: CDK2/Cyclin E biochemical phosphorylation assay (Caliper mobility shift); conditions: apparent IC50; 1.0 mM ATP or ATP Km; 1.25 nM enzyme; 25° C.; read-out: CDK2/cyclin E1 IC50
Summary of the method: as §1

T1 sequence (P06493 whole entry): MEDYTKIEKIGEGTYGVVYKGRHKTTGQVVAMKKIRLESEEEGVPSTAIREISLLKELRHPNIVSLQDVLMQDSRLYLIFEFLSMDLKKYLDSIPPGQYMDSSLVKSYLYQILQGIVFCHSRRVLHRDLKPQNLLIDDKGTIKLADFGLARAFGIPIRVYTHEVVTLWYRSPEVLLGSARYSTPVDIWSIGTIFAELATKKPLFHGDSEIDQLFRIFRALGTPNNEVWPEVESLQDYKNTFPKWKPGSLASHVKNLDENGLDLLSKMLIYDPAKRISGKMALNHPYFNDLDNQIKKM
T1 sequence (P14635 whole entry partner): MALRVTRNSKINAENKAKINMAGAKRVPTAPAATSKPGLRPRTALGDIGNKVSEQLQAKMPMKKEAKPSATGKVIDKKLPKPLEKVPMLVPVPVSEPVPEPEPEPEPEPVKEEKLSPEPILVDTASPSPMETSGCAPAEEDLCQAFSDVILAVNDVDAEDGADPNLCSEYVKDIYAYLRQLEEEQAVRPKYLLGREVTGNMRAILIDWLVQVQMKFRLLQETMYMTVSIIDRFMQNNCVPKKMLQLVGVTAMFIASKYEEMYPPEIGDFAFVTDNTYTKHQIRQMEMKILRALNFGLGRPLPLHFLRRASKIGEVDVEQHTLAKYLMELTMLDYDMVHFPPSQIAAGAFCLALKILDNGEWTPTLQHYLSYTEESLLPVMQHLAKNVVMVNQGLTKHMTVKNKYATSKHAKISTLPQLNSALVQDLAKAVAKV

| Compound | IC50 [1] [nM] | IC50 [2] [nM] |
| --- | --- | --- |
| CC1(C)C[C@H](Cn2ncc3ncc(Nc4cc(OC(F)F)[nH]n4)nc32)C(=O)N1 (single isomer, unassigned) [Example 184, (R)-3-((6-((5-(difluoromethoxy)-1H-pyrazol-3-yl)amino)-1H-pyrazolo[3,4-b]pyrazin-1-yl)methyl)-5,5-dimethylpyrrolidin-2-one or (S)-3-((6-((5-(difluoromethoxy)-1H-pyrazol-3-yl)amino)-1H-pyrazolo[3,4-b]pyrazin-1-yl)methyl)-5,5-dimethylpyrrolidin-2-one] | ≥ 500 | 30 to 100 |
| CC1(C)C[C@H](Cn2ncc3ncc(Nc4cc(OC(F)F)[nH]n4)nc32)C(=O)N1 (single isomer, unassigned) [Example 185, (S)-3-((6-((5-(difluoromethoxy)-1H-pyrazol-3-yl)amino)-1H-pyrazolo[3,4-b]pyrazin-1-yl)methyl)-5,5-dimethylpyrrolidin-2-one or (R)-3-((6-((5-(difluoromethoxy)-1H-pyrazol-3-yl)amino)-1H-pyrazolo[3,4-b]pyrazin-1-yl)methyl)-5,5-dimethylpyrrolidin-2-one] | ≥ 500 | 30 to 100 |
| COc1cc(Nc2cnc3cnn([C@@H](C)c4cc(F)ccn4)c3n2)n[nH]1 (single isomer, unassigned) [Example 187, (R)-1-(1-(4-fluoropyridin-2-yl)ethyl)-N-(5-methoxy-1H-pyrazol-3-yl)-1H-pyrazolo[3,4-b]pyrazin-6-amine or (S)-1-(1-(4-fluoropyridin-2-yl)ethyl)-N-(5-methoxy-1H-pyrazol-3-yl)-1H-pyrazolo[3,4-b]pyrazin-6-amine] | ≥ 500 | > 100 |
| C[C@@H](c1cc(Cl)ccn1)n1ncc2ncc(Nc3cc(OC(F)F)[nH]n3)nc21 (single isomer, unassigned) [Example 189, (R)-1-(1-(4-chloropyridin-2-yl)ethyl)-N-(5-(difluoromethoxy)-1H-pyrazol-3-yl)-1H-pyrazolo[3,4-b]pyrazin-6-amine or (S)-1-(1-(4-chloropyridin-2-yl)ethyl)-N-(5-(difluoromethoxy)-1H-pyrazol-3-yl)-1H-pyrazolo[3,4-b]pyrazin-6-amine] | ≥ 500 | > 100 |
| N#C[C@H]1C[C@H](Cn2ncc3ncc(Nc4cc(OC(F)F)[nH]n4)nc32)C1 (single isomer, unassigned) [Example 190, (1r,3r)-3-((6-((5-(difluoromethoxy)-1H-pyrazol-3-yl)amino)-1H-pyrazolo[3,4-b]pyrazin-1-yl)methyl)cyclobutane-1-carbonitrile or (1s,3s)-3-((6-((5-(difluoromethoxy)-1H-pyrazol-3-yl)amino)-1H-pyrazolo[3,4-b]pyrazin-1-yl)methyl)cyclobutane-1-carbonitrile] | ≥ 500 | > 100 |
| N#C[C@H]1C[C@H](Cn2ncc3ncc(Nc4cc(OC(F)F)[nH]n4)nc32)C1 (single isomer, unassigned) [Example 191, (1s,3s)-3-((6-((5-(difluoromethoxy)-1H-pyrazol-3-yl)amino)-1H-pyrazolo[3,4-b]pyrazin-1-yl)methyl)cyclobutane-1-carbonitrile or (1r,3r)-3-((6-((5-(difluoromethoxy)-1H-pyrazol-3-yl)amino)-1H-pyrazolo[3,4-b]pyrazin-1-yl)methyl)cyclobutane-1-carbonitrile] | 100 to 500 | ≤ 10 |
| COc1cc(Nc2cnc3cnn([C@@H](C(F)F)C4CCOCC4)c3n2)n[nH]1 (single isomer, unassigned) [Example 192, (R)-1-(2,2-difluoro-1-(tetrahydro-2H-pyran-4-yl)ethyl)-N-(5-methoxy-1H-pyrazol-3-yl)-1H-pyrazolo[3,4-b]pyrazin-6-amine or (S)-1-(2,2-difluoro-1-(tetrahydro-2H-pyran-4-yl)ethyl)-N-(5-methoxy-1H-pyrazol-3-yl)-1H-pyrazolo[3,4-b]pyrazin-6-amine] | ≥ 500 | > 100 |
| COc1cc(Nc2cnc3cnn([C@@H](C(F)F)C4CCOCC4)c3n2)n[nH]1 (single isomer, unassigned) [Example 193, (S)-1-(2,2-difluoro-1-(tetrahydro-2H-pyran-4-yl)ethyl)-N-(5-methoxy-1H-pyrazol-3-yl)-1H-pyrazolo[3,4-b]pyrazin-6-amine or (R)-1-(2,2-difluoro-1-(tetrahydro-2H-pyran-4-yl)ethyl)-N-(5-methoxy-1H-pyrazol-3-yl)-1H-pyrazolo[3,4-b]pyrazin-6-amine] | ≥ 500 | 10 to 20 |
| COc1cc(Nc2cnc3cnn([C@@H](CF)C4CCOCC4)c3n2)n[nH]1 (single isomer, unassigned) [Example 194, (R)-1-(2-fluoro-1-(tetrahydro-2H-pyran-4-yl)ethyl)-N-(5-methoxy-1H-pyrazol-3-yl)-1H-pyrazolo[3,4-b]pyrazin-6-amine or (S)-1-(2-fluoro-1-(tetrahydro-2H-pyran-4-yl)ethyl)-N-(5-methoxy-1H-pyrazol-3-yl)-1H-pyrazolo[3,4-b]pyrazin-6-amine] | 100 to 500 | ≤ 10 |
| CC[C@@H]([C@@H](C)O)n1ncc2ncc(Nc3cc(OC(F)F)[nH]n3)nc21 (single isomer, unassigned) [Example 201, (2R,3S)-3-(6-((5-(difluoromethoxy)-1H-pyrazol-3-yl)amino)-1H-pyrazolo[3,4-b]pyrazin-1-yl)pentan-2-ol or (2R,3R)-3-(6-((5-(difluoromethoxy)-1H-pyrazol-3-yl)amino)-1H-pyrazolo[3,4-b]pyrazin-1-yl)pentan-2-ol] | ≥ 500 | > 100 |
| C[C@@H](CCO)n1ncc2ncc(Nc3cc(OC(F)F)[nH]n3)nc21 (single isomer, unassigned) [Example 205, (S)-3-(6-((5-(difluoromethoxy)-1H-pyrazol-3-yl)amino)-1H-pyrazolo[3,4-b]pyrazin-1-yl)butan-1-ol or (R)-3-(6-((5-(difluoromethoxy)-1H-pyrazol-3-yl)amino)-1H-pyrazolo[3,4-b]pyrazin-1-yl)butan-1-ol] | ≥ 500 | 30 to 100 |
| O[C@H]1CC[C@@H](n2ncc3ncc(Nc4cc(OC(F)F)[nH]n4)nc32)C1 (single isomer, unassigned) [Example 208] | ≥ 500 | ≤ 10 |

Now from value to compound:

| IC50 [1] [nM] | IC50 [2] [nM] | Compound |
| --- | --- | --- |
| ≥ 500 | 10 to 20 | COc1cc(Nc2cnc3cnn([C@@H](C)c4cc(F)ccn4)c3n2)n[nH]1 (single isomer, unassigned) [Example 186, (S)-1-(1-(4-fluoropyridin-2-yl)ethyl)-N-(5-methoxy-1H-pyrazol-3-yl)-1H-pyrazolo[3,4-b]pyrazin-6-amine or (R)-1-(1-(4-fluoropyridin-2-yl)ethyl)-N-(5-methoxy-1H-pyrazol-3-yl)-1H-pyrazolo[3,4-b]pyrazin-6-amine] |
| ≥ 500 | 30 to 100 | C[C@@H](c1cc(Cl)ccn1)n1ncc2ncc(Nc3cc(OC(F)F)[nH]n3)nc21 (single isomer, unassigned) [Example 188, (S)-1-(1-(4-chloropyridin-2-yl)ethyl)-N-(5-(difluoromethoxy)-1H-pyrazol-3-yl)-1H-pyrazolo[3,4-b]pyrazin-6-amine or (R)-1-(1-(4-chloropyridin-2-yl)ethyl)-N-(5-(difluoromethoxy)-1H-pyrazol-3-yl)-1H-pyrazolo[3,4-b]pyrazin-6-amine] |
| ≥ 500 | > 100 | COc1cc(Nc2cnc3cnn([C@@H](CF)C4CCOCC4)c3n2)n[nH]1 (single isomer, unassigned) [Example 195, (S)-1-(2-fluoro-1-(tetrahydro-2H-pyran-4-yl)ethyl)-N-(5-methoxy-1H-pyrazol-3-yl)-1H-pyrazolo[3,4-b]pyrazin-6-amine or (R)-1-(2-fluoro-1-(tetrahydro-2H-pyran-4-yl)ethyl)-N-(5-methoxy-1H-pyrazol-3-yl)-1H-pyrazolo[3,4-b]pyrazin-6-amine] |
| ≥ 500 | > 100 | COc1cc(Nc2cnc3cnn(C[C@H]4C[C@@H]4C#N)c3n2)n[nH]1 (single isomer, unassigned) [Example 196, (1S,2S)-2-((6-((5-methoxy-1H-pyrazol-3-yl)amino)-1H-pyrazolo[3,4-b]pyrazin-1-yl)methyl)cyclopropane-1-carbonitrile or (1R,2R)-2-((6-((5-methoxy-1H-pyrazol-3-yl)amino)-1H-pyrazolo[3,4-b]pyrazin-1-yl)methyl)cyclopropane-1-carbonitrile] |
| ≥ 500 | 20 to 30 | COc1cc(Nc2cnc3cnn(C[C@H]4C[C@@H]4C#N)c3n2)n[nH]1 (single isomer, unassigned) [Example 197, (1R,2R)-2-((6-((5-methoxy-1H-pyrazol-3-yl)amino)-1H-pyrazolo[3,4-b]pyrazin-1-yl)methyl)cyclopropane-1-carbonitrile or (1S,2S)-2-((6-((5-methoxy-1H-pyrazol-3-yl)amino)-1H-pyrazolo[3,4-b]pyrazin-1-yl)methyl)cyclopropane-1-carbonitrile] |
| ≥ 500 | 30 to 100 | CCC([C@@H](C)O)n1ncc2ncc(Nc3cc(OC(F)F)[nH]n3)nc21 (single isomer, unassigned) [Example 202] |
| ≥ 500 | > 100 | C[C@@H](CCO)n1ncc2ncc(Nc3cc(OC(F)F)[nH]n3)nc21 (single isomer, unassigned) [Example 206, (R)-3-(6-((5-(difluoromethoxy)-1H-pyrazol-3-yl)amino)-1H-pyrazolo[3,4-b]pyrazin-1-yl)butan-1-ol or (S)-3-(6-((5-(difluoromethoxy)-1H-pyrazol-3-yl)amino)-1H-pyrazolo[3,4-b]pyrazin-1-yl)butan-1-ol] |
| ≥ 500 | 10 to 20 | O[C@H]1CC[C@@H](n2ncc3ncc(Nc4cc(OC(F)F)[nH]n4)nc32)C1 (single isomer, unassigned) [Example 207] |
